Data published in ChEMBL document CHEMBL5365425, “Discovery of novel methionine adenosyltransferase 2A (MAT2A) allosteric inhibitors by structure-based virtual screening” (Bioorg Med Chem Lett, 2023).
Converted amounts (≈) assume the structure as drawn. The source made the active and inactive calls. No cut-off for these calls is given here.

Columns and labels:
[1] = target: T1, S-adenosylmethionine synthase isoform type-2 (Homo sapiens, UniProt P31153); test: Inhibition of recombinant human MAT2A
[2] = Lipophilicity, log D of compound at pH 7.4; type: physicochemical; conditions: buffer
[3] = Solubility of the compound; type: physicochemical
[4] = system: HCT-116; test: Antiproliferative activity against human HCT-116 cells assessed as inhibition of cell growth by proliferation assay; type: functional, cell-based
[5] = system: HCT-116; test: Antiproliferative activity against MTAP-/- isogenic variant of human HCT-116 cells assessed as inhibition of cell growth by proliferation assay; type: functional, cell-based
[6] = target: T1, S-adenosylmethionine synthase isoform type-2; test: Inhibition of human MAT2A
Target sequence in this assay (P31153 whole entry, canonical isoform): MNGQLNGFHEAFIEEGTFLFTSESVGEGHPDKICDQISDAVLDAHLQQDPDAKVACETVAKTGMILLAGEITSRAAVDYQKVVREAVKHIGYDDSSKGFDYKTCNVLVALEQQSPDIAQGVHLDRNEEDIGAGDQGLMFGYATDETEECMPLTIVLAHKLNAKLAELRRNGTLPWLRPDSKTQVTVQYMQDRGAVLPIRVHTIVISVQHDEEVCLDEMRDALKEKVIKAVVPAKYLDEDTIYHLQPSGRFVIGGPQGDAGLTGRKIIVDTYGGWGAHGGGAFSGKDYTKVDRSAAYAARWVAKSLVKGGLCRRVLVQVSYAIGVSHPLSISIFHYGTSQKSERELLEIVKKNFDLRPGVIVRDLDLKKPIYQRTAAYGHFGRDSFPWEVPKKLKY

[7] = target: T2, S-adenosylmethionine synthase isoform type-1 (Homo sapiens, UniProt Q00266); test: Inhibition of recombinant human MAT1A
T2 sequence (Q00266 whole entry, canonical isoform): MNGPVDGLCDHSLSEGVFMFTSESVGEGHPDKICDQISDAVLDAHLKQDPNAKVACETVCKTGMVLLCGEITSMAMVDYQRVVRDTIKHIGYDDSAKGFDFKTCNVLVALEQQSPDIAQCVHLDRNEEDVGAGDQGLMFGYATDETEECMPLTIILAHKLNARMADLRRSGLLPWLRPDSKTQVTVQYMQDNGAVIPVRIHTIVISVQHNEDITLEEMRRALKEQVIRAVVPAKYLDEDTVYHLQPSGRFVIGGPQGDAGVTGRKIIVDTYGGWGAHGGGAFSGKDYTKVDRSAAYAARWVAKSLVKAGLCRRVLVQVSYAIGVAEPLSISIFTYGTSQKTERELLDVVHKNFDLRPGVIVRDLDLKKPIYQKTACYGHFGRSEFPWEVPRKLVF

[8] = target: T2, S-adenosylmethionine synthase isoform type-1; test: Activation of human MAT1A; conditions: filed as activator
[9] = target: T2, S-adenosylmethionine synthase isoform type-1; test: Inhibition of human MAT1A

IC50 [1] [µM]	logD [2]	solubility [3] [µM]	IC50 [4] [µM]	IC50 [5] [µM]	IC50 [6] [µM]	inhibition [1]	inhibition [7]	Activity [8]	IC50 [9] [µM]	SMILES
1.31	2.3	15 (≈ 4.58 µg/mL)	–	–	–	–	–	–	–	COc1ccc2oc3cc(C)[n+]([O-])c(-c4ccccc4)c3c2c1
> 10	3.2	4 (≈ 1.55 µg/mL)	–	–	–	–	–	–	–	CCCCn1ncc2c(C(=O)Nc3ccc4nn(C)cc4c3)cc(C3CC3)nc21
0.277	3.2	13 (≈ 4.65 µg/mL)	> 10	6.41	–	–	–	–	–	CCn1ncc2c(C(=O)Nc3ccc4ncccc4c3)cc(C3CC3)nc21
> 10	2.2	94 (≈ 35.2 µg/mL)	–	–	–	–	–	–	–	CCn1ncc2c(C(=O)N(C)c3ccc4nn(C)cc4c3)cc(C3CC3)nc21
0.122	2.8	14 (≈ 4.76 µg/mL)	7.93	3.12	–	–	–	–	–	COc1ccc2oc3cc(C)[n+]([O-])c(-c4ccc(Cl)cc4)c3c2c1
0.09	2.9	9 (≈ 3.37 µg/mL)	> 10	3.19	–	–	–	–	–	CCn1ncc2c(C(=O)Nc3ccc4nn(C)c(C)c4c3)cc(C3CC3)nc21
–	–	–	–	–	0.412	Active	Active	Active	–	CN(C)CCc1nnc2cc(-c3ccccc3)c3cc(Cl)ccc3n12
0.205	2.6	49 (≈ 17.7 µg/mL)	> 10	7.17	–	–	–	–	–	CCn1ncc2c(C(=O)Nc3ccc4ncn(C)c4c3)cc(C3CC3)nc21
0.13	3.6	3 (≈ 1.01 µg/mL)	> 10	5.27	–	–	–	–	–	CCn1ncc2c(C(=O)Nc3ccc(OC)cc3)cc(C3CC3)nc21
0.303	2.6	47 (≈ 16.9 µg/mL)	> 10	9.96	–	–	–	–	–	CCn1ncc2c(C(=O)Nc3ccc4c(c3)ncn4C)cc(C3CC3)nc21
0.403	3.3	3 (≈ 1.12 µg/mL)	> 10	> 10	–	–	–	–	–	CC(C)n1ncc2c(C(=O)Nc3ccc4nn(C)cc4c3)cc(C3CC3)nc21
3.71	3.7	4 (≈ 1.49 µg/mL)	> 10	> 10	–	–	–	–	–	CC(C)n1ncc2c(C(=O)Nc3ccc4ncccc4c3)cc(C3CC3)nc21
0.078	2.8	2 (≈ 0.721 µg/mL)	> 10	1.71	–	–	–	–	–	CCn1ncc2c(C(=O)Nc3ccc4nn(C)cc4c3)cc(C3CC3)nc21
0.172	3.4	1 (≈ 0.363 µg/mL)	> 10	3.86	–	–	–	–	–	CCn1ncc2c(C(=O)Nc3ccc4ncsc4c3)cc(C3CC3)nc21
–	–	–	–	–	0.05	Active	Active	–	> 10	Cn1cc2cc(-n3cc4cnc(NCC(F)(F)F)nc4c(-c4ccc(OC(F)F)cc4)c3=O)ccc2n1
0.068	3.1	32 (≈ 12 µg/mL)	> 10	2.42	–	–	–	–	–	CCn1cc2cc(NC(=O)c3cc(C4CC4)nc4c3cnn4CC)ccc2n1
–	–	–	–	–	–	Active	Active	Active	–	COc1ccc(-c2c(Nc3ccccn3)[nH]c3c(C4=CCCCC4)c(-c4ccccc4)nn3c2=O)cc1
0.145	2.5	42 (≈ 14.1 µg/mL)	> 10	7.55	–	–	–	–	–	COc1ccc(-c2c3c(cc(C)[n+]2[O-])oc2ccc(OC)cc23)cc1
0.051	2.7	11 (≈ 3.51 µg/mL)	9.23	4.96	–	–	–	–	–	COc1ccc2oc3cc(C)[n+]([O-])c(-c4ccc(C)cc4)c3c2c1
0.469	2.7	23 (≈ 7.97 µg/mL)	> 10	> 10	–	–	–	–	–	CCn1ncc2c(C(=O)Nc3ccc4[nH]ncc4c3)cc(C3CC3)nc21
–	–	–	–	–	–	Active	Active	–	0.813	O=c1nc(N2CC[C@@H](F)C2)c2ccc(Cl)cc2n1-c1ccccc1
> 10	3.5	2 (≈ 0.745 µg/mL)	–	–	–	–	–	–	–	CC(C)n1ncc2c(C(=O)Nc3ccc4nccnc4c3)cc(C3CC3)nc21
1.84	3.3	19 (≈ 6.85 µg/mL)	> 10	> 10	–	–	–	–	–	CC(C)n1ncc2c(C(=O)Nc3ccc4n[nH]cc4c3)cc(C3CC3)nc21
